Measurements: the supplement of paper PMC10307832

Experiments:
Test in all cases: relative viability (nuclei count vs DMSO), 5 days (fraction); higher = more cells survive
[1] = compound: CC1=C(CC(=O)O)c2cc(F)ccc2/C1=C\c1ccc([S+](C)[O-])cc1 [Sulindac] + Cc1nc(Nc2ncc(C(=O)Nc3c(C)cccc3Cl)s2)cc(N2CCN(CCO)CC2)n1 [Dasatinib] (partner 0.075 µM)
Procedure, shortened: (§1)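 Lung cancer cell lines, seeded in 1536-well plates, were treated the following day by pin tool with a single drug or with five library-drug doses (not always all listed) in √10 steps on top of a fixed anchor-drug dose. Cells were fixed and nuclei stained in one step after 5 days, and nuclei were counted. Relative viability is the nuclei count for treated wells divided by that for vehicle wells, reported as medians of duplicate plates.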

[2] = compound: CN[C@@H]1C[C@H]2O[C@@](C)([C@@H]1OC)n1c3ccccc3c3c4c(c5c6ccccc6n2c5c31)C(=O)NC4 [Staurosporine] + Nc1nc2[nH]cc(CCc3ccc(C(=O)N[C@@H](CCC(=O)O)C(=O)O)cc3)c2c(=O)[nH]1 [Pemetrexed] (partner 0.2 µM)
Procedure, shortened: as §1

[3] = compound: CN[C@@H]1C[C@H]2O[C@@](C)([C@@H]1OC)n1c3ccccc3c3c4c(c5c6ccccc6n2c5c31)C(=O)NC4 [Staurosporine] + COc1cccc2cc(-c3nc([C@H]4CC[C@H](C(=O)O)CC4)n4ncnc(N)c34)[nH]c12 [OSI-027] (partner 0.5 µM)
Procedure, shortened: as §1

[4] = compound: CC1=C(CC(=O)O)c2cc(F)ccc2/C1=C\c1ccc([S+](C)[O-])cc1 [Sulindac] + Cc1nc(NC(=O)N2CCC[C@H]2C(N)=O)sc1-c1ccnc(C(C)(C)C(F)(F)F)c1 [Alpelisib] (partner 2 µM)
Procedure, shortened: as §1

Cell Line | relative viability ([1]; first compound 0.08 µM) | relative viability ([1]; first compound 0.253 µM) | relative viability ([1]; first compound 0.8 µM) | relative viability ([1]; first compound 2.53 µM) | relative viability ([1]; first compound 8 µM) | relative viability ([2]; first compound 0.005 µM) | relative viability ([2]; first compound 0.01581 µM) | relative viability ([2]; first compound 0.05 µM) | relative viability ([2]; first compound 0.1581 µM) | relative viability ([2]; first compound 0.5 µM) | relative viability ([3]; first compound 0.005 µM) | relative viability ([3]; first compound 0.01581 µM) | relative viability ([3]; first compound 0.05 µM) | relative viability ([3]; first compound 0.1581 µM) | relative viability ([3]; first compound 0.5 µM) | relative viability ([4]; first compound 0.253 µM) | relative viability ([4]; first compound 0.8 µM) | relative viability ([4]; first compound 2.53 µM) | relative viability ([4]; first compound 8 µM) | relative viability ([4]; first compound 0.08 µM)
NCI-H1666 | 0.945 | 0.875 | 0.716 | 0.871 | 0.995 | 0.737 | 0.613 | 0.53 | 0.538 | 0.415 | 0.658 | 0.542 | 0.548 | 0.425 | 0.262 | 1.09 | 0.808 | 0.866 | 0.99 | 
LOU-NH91 | 0.65 | 0.53 | 0.481 | 0.54 | 0.573 | 0.339 | 0.304 | 0.336 | 0.255 | 0.274 | 0.767 | 0.571 | 0.487 | 0.344 | 0.213 | 0.7 | 0.636 | 0.745 | 0.808 | 0.711
LXF-289 | 0.24 | 0.223 | 0.227 | 0.25 | 0.225 | 0.812 | 0.182 | 0.307 | 0.0978 | 0.159 | 0.215 | 0.0608 | 0.116 | 0.0713 | 0.051 | 1.05 | 1.02 | 1.13 | 1.06 | 1.1
NCI-H1299 |  |  |  |  |  |  |  |  |  |  |  |  |  |  |  | 1.19 | 0.624 | 1.2 | 1.08 | 1.23
HARA | 0.248 | 0.25 | 0.277 | 0.327 | 0.26 | 0.195 | 0.167 | 0.134 | 0.138 | 0.168 | 0.448 |  | 0.128 | 0.0628 | 0.0398 | 0.952 |  | 0.918 | 0.785 | 1.07
LU99A | 0.596 | 0.533 | 0.509 | 0.522 | 0.714 | 0.178 | 0.168 | 0.16 | 0.114 | 0.119 | 0.224 | 0.164 | 0.229 | 0.155 | 0.144 | 0.564 | 0.455 | 0.498 | 0.596 | 0.468
201T | 0.662 | 0.585 | 0.526 | 0.559 | 0.587 | 0.339 |  | 0.261 | 0.253 | 0.214 | 0.462 | 0.338 | 0.454 | 0.247 |  | 1.04 | 1.02 | 0.999 | 1.02 | 0.967
HCC-827 | 0.348 | 0.412 | 0.251 | 0.319 | 0.338 | 0.266 | 0.278 | 0.246 | 0.171 | 0.154 | 0.875 | 0.672 | 0.476 | 0.383 | 0.211 | 0.979 | 0.839 | 0.943 | 1.11 | 0.985
NCI-H1703 |  |  |  |  |  |  |  |  |  |  |  |  |  |  |  | 0.346 | 0.301 | 0.461 | 0.341 | 0.37
